l = locked nucleic acid (LNA); d = 2'-deoxy (DNA)
Tests used:
122R, DNA = experiment: Melting temperature (Tm) of oligo against DNA complement; format: physicochemical
Experimental: The LNA anti-miR/miR-122a oligo duplex was diluted to 3 μM in 500 μl RNase free H2O, which was then mixed with 500 μl 2× dimerization buffer (final oligo/duplex conc. 1.5 μM, 2× Tm buffer: 200 mM NaCl, 0.2 mM EDTA, 20 mM NaP, pH 7.0, DEPC treated to remove RNases). The mix was first heated to 95 degrees for 3 minutes, then allowed to cool at room temperature (RT) for 30 minutes.
Following RT incubation Tm was measured on Lambda 40 UV/VIS Spectrophotometer with peltier temperature progammer PTP6 using PE Templab software (Perkin Elmer). The temperature was ramped up from 20° C. to 95° C. and then down again to 20° C., continuously recording absorption at 260 nm. First derivative and local maximums of both the melting and annealing was used to assess melting/annealing point (Tm), both should give similar/same Tm values. For the first derivative 91 points was used to calculate the slope.
However, in one embodiment the Tm may be made with a complementary DNA ([…]) molecule. Typically the Tm measured against a DNA complementary molecule is about 10° C. lower than the Tm with an equivalent RNA complement. The Tm measured using the DNA complement may therefore be used in cases where the duplex has a very high Tm.

miR-122 [1] = experiment: microRNA specific northern blot of mouse liver RNA; format: in vivo
Experimental: We decided to assess the effect of SEQ ID NO:63 on miR-122 miRNA levels in the livers of SEQ ID NO: 63-treated mice. The LNA-antimiRs SEQ ID NO:63 and SEQ ID NO: 61 were administered into mice by three i.p. injections on every second day over a six-day-period at indicated doses followed by sacrificing the animals 48 hours after the last dose. Total RNA was extracted from the livers. miR-122 levels were assessed by microRNA specific northern blot (FIG. 6)
The liver RNA was also subjected to microRNA Northern blot. Shown in FIG. 13 is a membrane probed with a miR-122a specific probe (upper panel) and re-probed with a Let-7 specific probe (lower panel). With the miR-122 probe, two bands could be detected, one corresponding to mature miR-122 and one corresponding to a duplex between SEQ ID NO: 61 and miR-122.
Preparation of northern membranes was done as described in Sempere et al. 2002, except for the following changes: Total RNA, 10 μg per lane, in formamide loading buffer (47.5% formamide, 9 mM EDTA, 0.0125% Bromophenol Blue, 0.0125% Xylene Cyanol, 0.0125% SDS) was loaded onto a 15% denaturing Novex TBE-Urea polyacrylamide gel (Invitrogen) without preheating the RNA. The RNA was electrophoretically transferred to a GeneScreen plus Hybridization Transfer Membrane (PerkinElmer) at 200 mA for 35 min. Membranes were probed with 32P-labelled LNA-modified oligonucleotides complimentary to the mature microRNAs*. The LNA oligonucleotides were labelled and hybridized to the membrane as described in (Válóczi et al. 2004) except for the following changes: The prehybridization and hybridization solutions contained 50% formamide, 0.5% SDS, 5×SSC, 5×Denhardt's solution and 20 μg/ml sheared denatured herring sperm DNA. Hybridizations were performed at 45° C. The blots were visualized by scanning in a Storm 860 scanner. The signal of the background membrane was subtracted from the radioactive signals originating from the miRNA bands. The values of the miR-122 signals were corrected for loading differences based on the let-7a signal. […]

miR-122 [2] = experiment: Genome-wide liver expression profiling, Affymetrix Mouse Genome 430 2.0 arrays; format: in vivo
Experimental: We carried out genome-wide expression profiling of total RNA samples from saline LNA-antimiR-122 treated and LNA mismatch control treated mice livers 24 hours after the last dose using Affymetrix Mouse Genome 430 2.0 arrays. […] We subsequently examined the 3′ untranslated regions (UTRs) of the differentially expressed mRNAs for the presence of the 6 nt sequence CACTCC, corresponding to the reverse complement of the nucleotide 2-7 seed region in mature miR-122.
Expression profiles of livers of saline and LNA-antimiR treated mice were compared. NMRI female mice were treated with 25 mg/kg/day of LNA-antimiR along with saline control for three consecutive days and sacrificed 24 h, 1, 2 or 3 weeks after last dose. Additionally, expression profiles of livers of mice treated with the mismatch LNA control oligonucleotide 24 h after last dose were obtained. Three mice from each group were analyzed, yielding a total of […] expression profiles. RNA quality and concentration was measured using an Agilent 2100 Bioanalyzer and Nanodrop ND-1000, respectively. Total RNA was processed following the GeneChip Expression 3′-Amplification Reagents One-cycle cDNA synthesis kit instructions (Affymetrix Inc, Santa Clara, Calif., USA) to produce double-stranded cDNA. This was used as a template to generate biotin-labeled cRNA following manufacturer's specifications. Fifteen micrograms of biotin-labeled cRNA was fragmented to strands between 35 and 200 bases in length, of which 10 micrograms were hybridised onto Affymetrix Mouse Genome 430 2.0 arrays overnight in the GeneChip Hybridisation oven 6400 using standard procedures. The arrays were washed and stained in a GeneChip Fluidics Station 450. Scanning was carried out using the GeneChip Scanner 3000 and image analysis was performed using GeneChip Operating Software. Normalization and statistical analysis were done using the LIMMA software package for the R programming environment27. Probes reported as absent by GCOS software in all hybridizations were removed from the dataset. Additionally, an intensity filter was applied to the dataset to remove probes displaying background-corrected intensities below 16. Data were normalized using quantile normalization28. Differential expression was assessed using a linear model method. P values were adjusted for multiple testing using the Benjamini and Hochberg. Tests were considered to be significant if the adjusted p values were p<0.05. Clustering and visualization of Affymetrix array data were done using the MultiExperiment Viewer software29.

[3] = liver, 24 hours after the last dose

Substance: 5′-CcAttGTcaCaCtCC-3′ (antisense CCATTGTCACACTCC; sugars from the 5' end ldlddllddldldll, backbone and methylation of C not given here) [SEQ ID NO: 63]
- Tm, oligo to DNA complement (122R, DNA): 66 °C
- blocking of miR-122, northern blot (in words) (miR-122 [1]; three i.p. injections every second day, 5 and 25 mg/kg, 48 hours after last dose): completely blocked miR-122
- duplex versus mature band on northern blot, comparison (in words) (miR-122 [1]; three i.p. injections every second day, 48 hours after last dose): equally efficient at 1 mg/kg as SEQ ID NO: 61SEQ ID NO: 61 at 25 mg/kg

Substance: 5′-ccAttGtcAcaCtcCa-3′ (antisense CCATTGTCACACTCCA; sugars from the 5' end ddlddlddlddlddld, backbone and methylation of C not given here) [SEQ ID NO: 61]
- Tm, oligo to DNA complement (122R, DNA): 57 °C
- mature miR-122, small RNA northern blot (in words) (miR-122 [1]; liver RNA, let-7a control not altered): significantly reduced levels of detectable mature miR-122
- differentially expressed mRNAs (miR-122 [2]; 24 hours after the last LNA dose): 509
- differentially expressed genes (miR-122 [2]; after one week): 251
- transcripts downregulated (miR-122 [2]; [3]): 54
- transcripts upregulated compared to saline and LNA mismatch controls (miR-122 [2]; [3]): 455
- differentially expressed genes (miR-122 [2]; three weeks post treatment): 18
